# Assay results reported in ChEMBL document CHEMBL1201862, “PubChem BioAssay data set” (2004).
# Counter-ions that a name gives are not always drawn. Active and inactive are the calls of the source.
# Assays:
# [1] = HEK293 cell cytotoxicity, dose response, cytotoxicity control, plate reader, cherry-picked samples (AID 743446); type: functional, cell-based
# [2] = Luminescence Cell-Based Dose Response HTS to Identify Activators of Luciferase Translation or Activity in H4 […] Cells. [Related pubchem assays: 1829 (Project Summary), 1814 (Primary HTS)]; type: functional
# [3] = Luminescence Cell-Based Dose Confirmation HTS to Identify Activators of 5'UTR Stem-Loop Driven Alpha-Synuclein mRNA Translation in H4 Neuroglioblastoma Cells. [Related pubchem assays: 1829 (Project Summary), 1814 (Primary HTS)]; type: functional
# [4] = Luminescence Cell-Based Dose Retest to Confirm Inhibitors of Cancer Stem Cells. [Related pubchem assays (depositor defined):AID2717, AID2721]; type: functional; settings: Homo sapiens
# [5] = A549 cell cytotoxicity, dose response, cytotoxicity control, plate reader, cherry-pick, antagonist series (AID 743412); type: functional, cell-based
# H4 = assay: Luminescence Cell-Based Dose Response HTS to Identify Activators of 5'UTR Stem-Loop Driven Prion Protein mRNA Translation in H4 Neuroglioblastoma Cells. [Related pubchem assays: 1829 (Project Summary), 1814 (Primary HTS)]; type: functional; settings: Homo sapiens
# [6] = HepG2 cell cytotoxicity, dose response, cytotoxicity control, plate reader, cherry-pick, antagonist series (AID 743416); type: functional, cell-based
# INS1 = assay: beta cell apoptosis inhibitors, cytokine rescue, dose response, luminescence, retest (AID 449756); type: functional, cell-based; settings: Rattus norvegicus;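 also: cell death triggered by IL-1 beta plus TNF-alpha plus IFN-gamma mixture; protective hits raise ATP signal compared with cytokine alone wells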
# Protein RecA = biological target: T1, Protein RecA (Mycobacterium tuberculosis, UniProt P9WHJ3); assay: Fluorescence Cell-Free Homogeneous Dose Retest to Identify Inhibitors of RecA-Intein Splicing Activity. [Related pubchem assays (depositor defined):AID2097, AID2223, AID489010, AID492950]; type: functional
# T1 sequence (P9WHJ3 whole entry): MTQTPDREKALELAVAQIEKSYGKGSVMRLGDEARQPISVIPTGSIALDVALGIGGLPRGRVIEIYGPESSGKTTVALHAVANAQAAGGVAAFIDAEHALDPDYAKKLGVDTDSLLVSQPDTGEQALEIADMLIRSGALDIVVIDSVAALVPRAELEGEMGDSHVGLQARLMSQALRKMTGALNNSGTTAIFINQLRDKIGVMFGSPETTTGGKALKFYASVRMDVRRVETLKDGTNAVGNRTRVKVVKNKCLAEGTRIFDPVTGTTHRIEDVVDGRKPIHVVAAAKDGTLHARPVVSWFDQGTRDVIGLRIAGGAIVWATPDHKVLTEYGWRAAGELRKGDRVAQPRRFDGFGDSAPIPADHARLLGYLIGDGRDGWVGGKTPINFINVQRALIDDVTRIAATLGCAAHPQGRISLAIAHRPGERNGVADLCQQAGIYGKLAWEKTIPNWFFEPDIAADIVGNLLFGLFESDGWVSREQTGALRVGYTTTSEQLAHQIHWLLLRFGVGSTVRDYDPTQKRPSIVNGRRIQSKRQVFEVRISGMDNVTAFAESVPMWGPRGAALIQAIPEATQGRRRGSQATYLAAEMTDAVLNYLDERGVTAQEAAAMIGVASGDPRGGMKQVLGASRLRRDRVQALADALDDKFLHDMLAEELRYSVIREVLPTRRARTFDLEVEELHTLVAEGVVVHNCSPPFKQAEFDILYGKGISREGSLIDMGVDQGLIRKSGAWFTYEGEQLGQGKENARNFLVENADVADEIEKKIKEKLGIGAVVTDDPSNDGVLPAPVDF
# Caspase-6 = Caspase-6 (Homo sapiens, UniProt P55212); assay: human caspase-6 inhibitors, dose response, biochemical, VEID-R110 fluorescence, cherry-pick (AID 720632)
# Sequence of Caspase-6 (P55212 24-179 limits assumed): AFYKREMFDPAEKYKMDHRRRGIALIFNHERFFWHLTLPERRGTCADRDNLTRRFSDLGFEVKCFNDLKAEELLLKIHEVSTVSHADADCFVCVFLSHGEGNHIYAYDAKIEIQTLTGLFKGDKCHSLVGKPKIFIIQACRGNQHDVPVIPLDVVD
# Sequence of Caspase-6 (P55212 194-293 limits assumed): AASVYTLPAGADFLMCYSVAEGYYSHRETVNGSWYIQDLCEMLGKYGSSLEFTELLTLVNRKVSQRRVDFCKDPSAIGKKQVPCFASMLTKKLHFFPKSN
# Genome polyprotein = Genome polyprotein (dengue virus type 2, UniProt P29990); assay: Dengue-2 NS5 methyltransferase inhibitors, primary screen, biochemical, confirmation dose response (AID 588689); type: functional
# Sequence of Genome polyprotein (P29990 2492-3391 limits assumed): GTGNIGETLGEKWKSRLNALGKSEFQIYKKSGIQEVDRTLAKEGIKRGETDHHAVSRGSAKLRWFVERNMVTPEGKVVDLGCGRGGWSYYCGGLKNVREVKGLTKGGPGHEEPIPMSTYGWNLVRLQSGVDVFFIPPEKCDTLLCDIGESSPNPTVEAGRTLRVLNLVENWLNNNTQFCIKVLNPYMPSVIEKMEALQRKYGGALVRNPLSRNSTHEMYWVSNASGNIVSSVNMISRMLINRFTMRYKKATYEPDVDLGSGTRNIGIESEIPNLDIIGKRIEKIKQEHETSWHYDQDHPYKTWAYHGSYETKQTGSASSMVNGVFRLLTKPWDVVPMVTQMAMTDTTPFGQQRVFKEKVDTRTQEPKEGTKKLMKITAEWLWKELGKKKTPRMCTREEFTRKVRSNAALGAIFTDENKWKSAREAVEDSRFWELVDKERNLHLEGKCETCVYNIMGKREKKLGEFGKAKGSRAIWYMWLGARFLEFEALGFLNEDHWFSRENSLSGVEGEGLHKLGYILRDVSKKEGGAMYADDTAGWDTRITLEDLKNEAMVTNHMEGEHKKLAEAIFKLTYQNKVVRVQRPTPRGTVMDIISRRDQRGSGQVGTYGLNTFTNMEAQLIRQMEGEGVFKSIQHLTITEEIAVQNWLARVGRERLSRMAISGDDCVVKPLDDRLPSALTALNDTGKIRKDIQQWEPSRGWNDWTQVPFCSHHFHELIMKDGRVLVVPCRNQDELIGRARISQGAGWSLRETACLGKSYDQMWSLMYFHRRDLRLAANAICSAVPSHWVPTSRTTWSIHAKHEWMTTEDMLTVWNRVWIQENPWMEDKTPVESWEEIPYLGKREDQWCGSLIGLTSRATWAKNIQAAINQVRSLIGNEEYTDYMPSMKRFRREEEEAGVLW
# [7] = HEp-2 cell cytotoxicity, dose response, cytotoxicity control for RSV inhibitor project, HTS (AID 2410); type: functional; settings: human respiratory syncytial virus
# [8] = biological target: E3 ubiquitin-protein ligase Mdm2 (Homo sapiens, UniProt Q00987); assay: enhancers of MDM2-luciferase reporter signal, concentration-effect titration, project on inhibitors of MDM2 ubiquitin ligase, cellular assay, luminescent readout, 384-well plate format (AID 1394); type: functional;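 also: MDM2 E3 inhibitors raise luminescence so EC50 is for signal enhancement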
# Sequence of E3 ubiquitin-protein ligase Mdm2 (Q00987 whole entry): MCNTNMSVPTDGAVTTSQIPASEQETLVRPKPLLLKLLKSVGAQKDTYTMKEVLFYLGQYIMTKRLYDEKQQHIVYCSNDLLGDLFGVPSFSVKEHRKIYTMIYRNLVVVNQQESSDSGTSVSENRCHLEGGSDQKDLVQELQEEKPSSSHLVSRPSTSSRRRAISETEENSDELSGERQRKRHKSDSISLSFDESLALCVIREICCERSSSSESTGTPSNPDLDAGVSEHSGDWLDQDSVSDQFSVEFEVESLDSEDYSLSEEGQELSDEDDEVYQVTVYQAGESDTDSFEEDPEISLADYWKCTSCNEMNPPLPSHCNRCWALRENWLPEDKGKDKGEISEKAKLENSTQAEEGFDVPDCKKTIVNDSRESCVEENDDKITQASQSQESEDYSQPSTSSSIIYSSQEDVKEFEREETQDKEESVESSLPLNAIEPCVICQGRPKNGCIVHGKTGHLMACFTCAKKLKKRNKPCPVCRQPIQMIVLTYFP
# [9] = inhibitors of Vif binding to APOBEC3G peptide, primary screen, biochemical, TR-FRET, GST-Vif 1-94, biotin-A3G peptide, dose response retest (AID 1117319); type: functional;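 also: TR-FRET signal of purified GST-Vif binding a biotinylated A3G peptide; inhibitors lower the FRET signal by blocking Vif and A3G binding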
# [10] = ADAM10 inhibitors, peptide cleavage, dose response, biochemical, QFRET (AID 743254);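 also: ADAM10 enzyme with the DM2 quenched FRET peptide as substrate; EDANS fluorescence gain as the protease cuts the substrate; inhibitor potency against ADAM10 proteolytic activity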
# [11] = growth suppression of beta-catenin-knockout colon cells, dose response, cell-based, HCT116, human colon tumor (AID 1045); type: functional;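 also: HCT116 colon tumor cells with beta catenin knocked out; cells exposed to compound for 60 hours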
# [12] = growth suppression of PTEN-null colon cells, dose response, cell-based, HCT116 PTEN knockout (AID 1047); type: functional;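 also: HCT116 colon tumor cells with PTEN knocked out; cells exposed to compound for 60 hours before readout; potency for loss of cell viability measured by luminescence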
# [13] = biological target: T2, Heat shock factor protein 1 (Mus musculus, UniProt P38532); assay: HSF1 potentiators in luciferase reporter cells, confirmation, cell-based, NIH3T3, luminescence, dose retest (AID 435004); type: functional;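 also: stress induced by proteasome inhibitor MG132 added 30 min after compound; luciferase reporter driven by HSF1 response element in NIH3T3 cells; actives raise luminescence as potentiators of the MG132 stress response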
# T2 sequence (P38532 whole entry): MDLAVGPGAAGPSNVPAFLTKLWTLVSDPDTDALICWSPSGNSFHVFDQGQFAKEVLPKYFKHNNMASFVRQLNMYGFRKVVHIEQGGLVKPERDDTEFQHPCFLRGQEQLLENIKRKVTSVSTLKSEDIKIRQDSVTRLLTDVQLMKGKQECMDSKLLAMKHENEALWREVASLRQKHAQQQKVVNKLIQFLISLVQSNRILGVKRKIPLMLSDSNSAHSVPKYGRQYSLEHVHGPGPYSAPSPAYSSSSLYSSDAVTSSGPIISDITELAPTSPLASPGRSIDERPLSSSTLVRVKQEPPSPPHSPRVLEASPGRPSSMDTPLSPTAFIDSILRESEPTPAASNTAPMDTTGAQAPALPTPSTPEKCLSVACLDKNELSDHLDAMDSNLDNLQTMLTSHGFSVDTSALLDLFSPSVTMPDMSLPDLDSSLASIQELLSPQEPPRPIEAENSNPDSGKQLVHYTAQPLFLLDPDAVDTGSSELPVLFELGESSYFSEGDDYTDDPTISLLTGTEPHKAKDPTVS
# Vero [14] = assay: cells; type: functional, cell-based; settings: Chlorocebus sabaeus
# [15] = biological target: Disintegrin and metalloproteinase domain-containing protein 17 (Homo sapiens, UniProt P78536); assay: ADAM17 protease inhibitors, dose response, counter-screen for ADAM10 exosite inhibitor project, biochemical, quenched FRET substrate (AID 743253)
# Sequence of Disintegrin and metalloproteinase domain-containing protein 17 (P78536 whole entry, the tested form may be a part): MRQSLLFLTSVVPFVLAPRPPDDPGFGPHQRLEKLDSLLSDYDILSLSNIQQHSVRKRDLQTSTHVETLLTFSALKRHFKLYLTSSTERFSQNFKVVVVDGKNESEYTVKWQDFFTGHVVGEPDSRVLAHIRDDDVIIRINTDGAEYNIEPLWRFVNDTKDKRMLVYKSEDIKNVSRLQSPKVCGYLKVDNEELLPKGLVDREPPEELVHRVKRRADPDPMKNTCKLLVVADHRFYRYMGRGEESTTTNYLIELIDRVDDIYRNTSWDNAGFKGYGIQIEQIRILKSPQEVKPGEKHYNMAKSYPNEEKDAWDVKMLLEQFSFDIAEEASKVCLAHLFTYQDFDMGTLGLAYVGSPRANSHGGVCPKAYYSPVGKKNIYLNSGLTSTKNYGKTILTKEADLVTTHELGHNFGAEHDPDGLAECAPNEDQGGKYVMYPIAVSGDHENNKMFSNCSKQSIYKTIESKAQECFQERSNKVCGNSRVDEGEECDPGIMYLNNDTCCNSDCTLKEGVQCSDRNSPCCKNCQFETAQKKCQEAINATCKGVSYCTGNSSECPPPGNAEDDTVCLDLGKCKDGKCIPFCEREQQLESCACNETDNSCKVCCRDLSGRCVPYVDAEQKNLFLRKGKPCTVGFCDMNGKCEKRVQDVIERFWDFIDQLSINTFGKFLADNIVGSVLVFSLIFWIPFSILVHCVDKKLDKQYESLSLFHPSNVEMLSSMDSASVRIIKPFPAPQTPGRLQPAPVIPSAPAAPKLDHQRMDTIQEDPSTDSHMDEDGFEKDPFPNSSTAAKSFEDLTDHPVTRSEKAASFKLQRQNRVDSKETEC
# Vero [16] = assay: cells; type: functional; settings: Chlorocebus sabaeus
# [17] = biological target: Mitogen-activated protein kinase 10 (Homo sapiens, UniProt P53779); assay: Dose response biochemical screening assay for inhibitors of c-Jun N-Terminal Kinase 3 (JNK3). [Related pubchem assays: 746 ]
# Sequence of Mitogen-activated protein kinase 10 (P53779 whole entry): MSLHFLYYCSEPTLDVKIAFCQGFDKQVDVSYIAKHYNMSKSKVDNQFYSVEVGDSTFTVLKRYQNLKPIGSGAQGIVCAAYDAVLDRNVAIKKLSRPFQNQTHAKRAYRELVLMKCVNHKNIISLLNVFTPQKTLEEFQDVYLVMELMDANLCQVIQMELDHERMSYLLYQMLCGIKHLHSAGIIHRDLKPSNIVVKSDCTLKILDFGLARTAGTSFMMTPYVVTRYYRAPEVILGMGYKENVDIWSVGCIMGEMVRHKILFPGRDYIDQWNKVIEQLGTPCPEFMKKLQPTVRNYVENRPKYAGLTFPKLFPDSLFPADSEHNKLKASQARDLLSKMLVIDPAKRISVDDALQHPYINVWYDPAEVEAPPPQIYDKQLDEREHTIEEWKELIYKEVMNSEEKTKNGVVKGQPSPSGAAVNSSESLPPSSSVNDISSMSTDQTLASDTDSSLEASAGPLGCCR
# [18] = inhibitors of intracellular T. cruzi replication, confirmation, NIH3T3 host cells, beta-gal luminescence (AID 2044); type: functional, cell-based;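 also: intracellular parasites grown in NIH/3T3 mouse fibroblasts as host cells; luminescent beta-galactosidase reporter signal from transgenic T. cruzi replicating inside host cells; inhibitors lower the luminescence signal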
# [19] = cytotoxicity toward NIH3T3 fibroblasts, dose response, counter-screen, cell-based, ATP luminescence, mouse fibroblasts (AID 2010); type: functional;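 also: cells exposed to compound for about 90 hours before reading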
# [20] = A2780 ovarian cancer cell cytotoxicity, dose response, cytotoxicity control, plate reader, dry powder samples (AID 743046); type: functional, cell-based
# Paired box protein Pax-8 = Paired box protein Pax-8 (Homo sapiens, UniProt Q06710); assay: inhibitors of PAX8-driven TPO luciferase reporter, dose response, RMG-I cells, cherry-pick (AID 687027); type: functional, cell-based;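 also: luciferase reporter driven by Pax8 target thyroperoxidase promoter measured by SteadyGlo luminescence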
# Sequence of Paired box protein Pax-8 (Q06710 whole entry): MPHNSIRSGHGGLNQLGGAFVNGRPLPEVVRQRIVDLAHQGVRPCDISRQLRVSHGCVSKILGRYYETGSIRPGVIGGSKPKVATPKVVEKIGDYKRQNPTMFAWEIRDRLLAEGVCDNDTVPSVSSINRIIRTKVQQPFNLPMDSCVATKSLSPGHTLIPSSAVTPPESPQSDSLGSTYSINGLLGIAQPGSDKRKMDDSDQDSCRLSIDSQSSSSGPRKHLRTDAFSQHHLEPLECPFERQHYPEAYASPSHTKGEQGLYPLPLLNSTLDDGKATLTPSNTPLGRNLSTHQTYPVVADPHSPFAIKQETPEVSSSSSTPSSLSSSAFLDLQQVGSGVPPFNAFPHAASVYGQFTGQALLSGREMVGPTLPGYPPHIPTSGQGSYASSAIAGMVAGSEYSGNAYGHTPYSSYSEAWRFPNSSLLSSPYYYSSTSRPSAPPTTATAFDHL
# [21] = inhibitors of non-replicating M. tuberculosis, dose response, luciferase, dry powder (AID 651620); type: functional; settings: Mycobacterium tuberculosis
# [22] = inhibitors of non-replicating M. tuberculosis, dose response, luciferase, dry powder (AID 651619); type: functional; settings: Mycobacterium tuberculosis
# [23] = CTGF mRNA reduction under YAP1 overexpression, dose response, mechanism study for YAP1 pathway inhibitor project, DLD1 cells, RT-qPCR, cherry-pick (AID 1053127); type: functional, cell-based; settings: DLD-1
# [24] = A375 melanoma cell viability loss, dose response, counter-screen for MITF inhibitor project, CellTiter-Glo luminescence, dry powder, set 4 (AID 624364); type: functional, cell-based; settings: A-375;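 also: A375 melanoma cells are MITF independent so this is a counter screen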
# [25] = A375 melanoma cell cytotoxicity, dose response, counter-screen for MITF inhibitor project, CellTiter-Glo luminescence, dry powder, set 2 (AID 624489); type: functional, cell-based; settings: A-375;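 also: actives are compounds lowering A375 viability meaning general cytotoxicity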
# [26] = RKO cell viability reduction, dose response, CellTiter-Glo luminescence (AID 1117322); type: functional
# [27] = cytotoxicity toward HT-29 cells – cell-based, CellTiter-Glo luminescence, IC50, dose response (AID 1117330); type: functional
# [28] = SNU-C1 cell viability reduction, dose response, CellTiter-Glo luminescence (AID 1117323); type: functional, cell-based
# [29] = CellTiter-Glo luminescent dose response of DLD-1 viability loss (AID 1117352); type: functional
# [30] = cytotoxicity toward Colo320 cells – cell-based, CellTiter-Glo luminescence, IC50, dose response (AID 1117334); type: functional; settings: COLO 320
# [31] = cytotoxicity toward HCT116 cells – cell-based, CellTiter-Glo luminescence, IC50, dose response (AID 1117332); type: functional; settings: HCT-116
# [32] = Concentration-dependent survival of SW480 colon cancer line, luminescence detection with CellTiter-Glo, half-maximal inhibitory concentration (AID 1117338); type: functional
# [33] = HCT116 cell viability decrease, GSK3B pretreatment – CellTiter-Glo, IC50, dose response (AID 1117339); type: functional; settings: HCT-116
# [34] = HeLa 2N DNA content increase, dose response, cell-based, IC50 (AID 1117349); type: functional
# [35] = HeLa 4N DNA content increase, dose response, cell-based, IC50 (AID 1117351); type: functional
smiles,measurement,setting,value
COc1cc(NC2CCCCC2O)c2nc(-c3ccc(Cl)cc3)ccc2c1 (configuration not stated),AC50,[1],> 52 µM (inactive)
same,EC50,[2],12.9 µM (active)
same,EC50,[3],9.15 µM (active)
same,AC50,[4],2.07 µM (active)
same,AC50,[5],20.3 µM (active)
same,EC50,H4,> 60 µM (not active)
same,AC50,[6],26.3 µM (active)
same,AC50,INS1,3.57 µM (active)
same,EC50,Protein RecA,0.0728 µM (active)
CCCCC(NC(=O)Cc1c(C)c2cc3c(-c4ccccc4)coc3c(C)c2oc1=O)C(=O)O (configuration not stated),AC50,Caspase-6,22 µM (active)
same,IC50,Genome polyprotein,51 µM (active)
same,IC50,cells,45.9 µM (active)
same,CC50,[7],> 50 µM (active)
COc1cc2c(cc1OC)CN(C(=O)c1ccco1)CC2,EC50,[8],11.1 µM (not active)
O=C(c1cc2ccccc2oc1=O)N1CCN(c2ccc(N3CCOCC3)nn2)CC1,IC50,[9],> 100 µM (active)
CCOC(=O)/C(=C\c1ccccc1)NC(=O)c1ccccc1,IC50,[9],> 100 µM (active)
Cc1ccc(N(CC(=O)NCCc2ccc(F)cc2)S(=O)(=O)c2ccc(Cl)c([N+](=O)[O-])c2)c(C)c1,IC50,[10],> 69.5 µM (inactive)
same,EC50,[11],8.87 µM (active)
same,EC50,[12],14 µM (active)
same,EC50,[13],17.1 µM (active)
same,IC50,Vero [14],> 25 µM (active)
same,IC50,[15],> 69.5 µM (inactive)
same,CC50,Vero [16],18.4 µM (active)
CC(=O)c1c(C)[nH]c(C(=O)OCn2nnc3ccccc3c2=O)c1C,IC50,[17],34.2 µM (not active)
O=C(Nc1nccs1)c1ccc(Br)o1,IC50,[17],> 31 µM (not active)
O=C(N/N=C/c1ccc([N+](=O)[O-])o1)C1CC1,AC50,Caspase-6,10 µM (active)
same,EC50,[18],0.36 µM (active)
same,EC50,[19],> 60 µM (not active)
CC(C)CC#Cc1ccc([C@@H]2[C@@H](CO)N3CCCCN(S(=O)(=O)c4ccc(F)cc4)C[C@H]23)cc1,AC50,[20],52.3 µM (active)
same,AC50,Paired box protein Pax-8,12.4 µM (active)
Brc1cccc(-c2nnc(SCc3ccccn3)o2)c1,IC90,[21],4 µM (active)
same,IC90,[22],4 µM (active)
O=C(Cc1ccncc1)N1CCCCN2[C@H](CO)[C@@H](c3ccc(C#Cc4ccccc4F)cc3)[C@H]2C1,AC50,[23],15.1 µM (active)
CC(C)(C)[S@@+]([O-])N1Cc2cc(C(=O)NCC(F)(F)F)nc(-c3cccc(-c4cccc(F)c4)c3)c2[C@H]1CCO,AC50,[23],> 26 µM (inactive)
COc1ccc(C2=C(N)C(=O)c3ccccc3C2=O)cc1,AC50,[24],> 70 µM (inactive)
same,AC50,[25],> 70 µM (inactive)
O=c1sc2ccccc2c(O)c1C1CC(c2ccc(-c3ccc(Br)cc3)cc2)Cc2ccccc21 (configuration not stated),IC50,[26],0.538 µM (active)
same,IC50,[27],0.436 µM (active)
same,IC50,[28],0.252 µM (active)
same,IC50,[29],0.239 µM (active)
same,IC50,[30],0.735 µM (active)
same,IC50,[31],0.485 µM (active)
same,IC50,[32],0.187 µM (active)
COc1ccc(C2=C(NC(C)=O)C(=O)c3ccccc3C2=O)cc1,AC50,[24],13.4 µM (active)
same,AC50,[25],8.33 µM (active)
COc1cc(NC(C)CCCN)c2ncccc2c1 (configuration not stated) [PRIMAQUINE],IC50,[33],> 20 µM (inactive)
same,IC50,[26],> 20 µM (inactive)
same,IC50,[34],> 10 µM (inactive)
same,IC50,[28],> 20 µM (inactive)
same,IC50,[29],> 20 µM (inactive)
same,IC50,[30],> 20 µM (inactive)
same,IC50,[31],1.88 µM (active)
same,IC50,[32],> 20 µM (inactive)
same,IC50,[35],> 10 µM (inactive)
O=C(CCCN1CCC(O)(c2cccc(C(F)(F)F)c2)CC1)c1ccc(F)cc1 [TRIFLUPERIDOL HYDROCHLORIDE],IC50,[33],> 20 µM (inactive)
same,IC50,[26],> 20 µM (inactive)
same,IC50,[27],> 20 µM (inactive)
same,IC50,[28],> 20 µM (inactive)
same,IC50,[29],> 20 µM (inactive)
same,IC50,[30],> 20 µM (inactive)
same,IC50,[31],> 20 µM (inactive)
same,IC50,[32],> 20 µM (inactive)
